Assay results reported in patent US10660877B2 (BRISTOL-MYERS SQUIBB COMPANY, priority 2016, dated 2020).

Experiments:
human TLR7 = human TLR7 (Homo sapiens (Human), UniProt Q9NYK1); experiment: TLR7 inhibition reporter assay (HEK-Blue cells, SEAP reporter, gardiquimod stimulation); format: cell-based; details: HEK-Blue cells overexpressing human TLR7, gardiquimod 7.5 μM
human TLR8 = human TLR8 (Homo sapiens (Human), UniProt Q9NR97); experiment: TLR8 inhibition reporter assay (HEK-Blue cells, SEAP reporter, R848 stimulation); details: read-out: TLR8 IC50, HEK-Blue cells overexpressing human TLR8, R848 15.9 μM;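 also: compounds tested from 0.05 nM to 50 µM, 22 h at 37 °C, SEAP measured with HEK-Blue Detection, inhibition relative to agonist plus DMSO versus a known inhibitor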
human TLR8, sequence (Q9NR97 27-1041): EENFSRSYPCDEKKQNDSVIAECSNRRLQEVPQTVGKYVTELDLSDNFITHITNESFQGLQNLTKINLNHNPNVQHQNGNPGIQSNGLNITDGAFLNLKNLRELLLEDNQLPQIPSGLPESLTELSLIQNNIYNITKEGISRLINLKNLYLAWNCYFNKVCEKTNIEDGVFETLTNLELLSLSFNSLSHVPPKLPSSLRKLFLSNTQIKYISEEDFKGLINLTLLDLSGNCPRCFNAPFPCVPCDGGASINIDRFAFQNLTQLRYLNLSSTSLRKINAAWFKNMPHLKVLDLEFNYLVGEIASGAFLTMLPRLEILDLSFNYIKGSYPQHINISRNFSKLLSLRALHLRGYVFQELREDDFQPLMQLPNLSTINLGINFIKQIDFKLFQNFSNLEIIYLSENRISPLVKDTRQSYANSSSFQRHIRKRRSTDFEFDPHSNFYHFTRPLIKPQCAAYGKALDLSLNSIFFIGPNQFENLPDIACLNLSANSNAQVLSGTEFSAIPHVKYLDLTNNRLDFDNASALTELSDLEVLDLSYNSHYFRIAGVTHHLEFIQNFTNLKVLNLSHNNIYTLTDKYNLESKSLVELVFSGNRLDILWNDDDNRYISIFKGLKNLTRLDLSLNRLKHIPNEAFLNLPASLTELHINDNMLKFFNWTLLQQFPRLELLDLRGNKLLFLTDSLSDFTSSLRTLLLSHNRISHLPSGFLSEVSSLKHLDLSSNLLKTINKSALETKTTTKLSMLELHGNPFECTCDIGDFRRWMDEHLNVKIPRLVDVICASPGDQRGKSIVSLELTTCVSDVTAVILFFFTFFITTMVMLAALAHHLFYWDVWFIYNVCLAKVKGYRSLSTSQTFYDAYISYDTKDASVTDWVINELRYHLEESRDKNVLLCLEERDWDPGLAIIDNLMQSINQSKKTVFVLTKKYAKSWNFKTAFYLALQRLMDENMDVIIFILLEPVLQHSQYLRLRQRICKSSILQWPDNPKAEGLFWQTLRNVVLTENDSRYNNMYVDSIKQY

human TLR9 = human TLR9 (Homo sapiens (Human), UniProt Q9NR96); experiment: TLR9 inhibition reporter assay (HEK-Blue cells, SEAP reporter, ODN2006 stimulation); details: read-out: TLR9 IC50, HEK-Blue cells overexpressing human TLR9, ODN2006 5 nM;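 also: compounds tested over 0.05 nM to 50 µM, 22 h incubation, inhibition taken as SEAP signal drop from agonist plus DMSO wells toward a known inhibitor control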
human TLR9, sequence (Q9NR96 26-1032): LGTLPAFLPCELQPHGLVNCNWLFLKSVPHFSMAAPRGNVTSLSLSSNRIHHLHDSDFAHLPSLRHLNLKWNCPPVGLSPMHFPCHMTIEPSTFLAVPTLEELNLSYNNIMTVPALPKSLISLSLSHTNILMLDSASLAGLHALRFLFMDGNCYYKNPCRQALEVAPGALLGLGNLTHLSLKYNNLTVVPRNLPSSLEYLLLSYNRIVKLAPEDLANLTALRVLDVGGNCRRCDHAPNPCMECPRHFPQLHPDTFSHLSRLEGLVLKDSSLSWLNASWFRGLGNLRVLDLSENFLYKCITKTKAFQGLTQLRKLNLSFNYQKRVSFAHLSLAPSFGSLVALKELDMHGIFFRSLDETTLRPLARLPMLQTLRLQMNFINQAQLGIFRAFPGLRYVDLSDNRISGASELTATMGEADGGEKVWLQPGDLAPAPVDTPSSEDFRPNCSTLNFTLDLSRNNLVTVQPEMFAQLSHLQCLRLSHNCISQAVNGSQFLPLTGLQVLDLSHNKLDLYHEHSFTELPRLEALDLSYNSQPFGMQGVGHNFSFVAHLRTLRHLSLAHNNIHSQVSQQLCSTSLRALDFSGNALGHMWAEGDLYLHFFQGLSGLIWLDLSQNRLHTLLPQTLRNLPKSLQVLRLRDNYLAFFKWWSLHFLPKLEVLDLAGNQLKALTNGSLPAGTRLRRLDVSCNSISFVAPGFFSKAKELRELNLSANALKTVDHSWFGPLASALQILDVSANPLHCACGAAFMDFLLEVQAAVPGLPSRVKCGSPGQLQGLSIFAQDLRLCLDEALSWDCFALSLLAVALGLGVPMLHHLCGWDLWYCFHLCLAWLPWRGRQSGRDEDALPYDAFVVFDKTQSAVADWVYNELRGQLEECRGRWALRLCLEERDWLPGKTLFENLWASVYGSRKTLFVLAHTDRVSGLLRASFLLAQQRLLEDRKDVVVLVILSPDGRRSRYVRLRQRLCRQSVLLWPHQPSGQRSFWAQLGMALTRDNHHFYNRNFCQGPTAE

human TLR7, sequence (Q9NYK1 27-1049): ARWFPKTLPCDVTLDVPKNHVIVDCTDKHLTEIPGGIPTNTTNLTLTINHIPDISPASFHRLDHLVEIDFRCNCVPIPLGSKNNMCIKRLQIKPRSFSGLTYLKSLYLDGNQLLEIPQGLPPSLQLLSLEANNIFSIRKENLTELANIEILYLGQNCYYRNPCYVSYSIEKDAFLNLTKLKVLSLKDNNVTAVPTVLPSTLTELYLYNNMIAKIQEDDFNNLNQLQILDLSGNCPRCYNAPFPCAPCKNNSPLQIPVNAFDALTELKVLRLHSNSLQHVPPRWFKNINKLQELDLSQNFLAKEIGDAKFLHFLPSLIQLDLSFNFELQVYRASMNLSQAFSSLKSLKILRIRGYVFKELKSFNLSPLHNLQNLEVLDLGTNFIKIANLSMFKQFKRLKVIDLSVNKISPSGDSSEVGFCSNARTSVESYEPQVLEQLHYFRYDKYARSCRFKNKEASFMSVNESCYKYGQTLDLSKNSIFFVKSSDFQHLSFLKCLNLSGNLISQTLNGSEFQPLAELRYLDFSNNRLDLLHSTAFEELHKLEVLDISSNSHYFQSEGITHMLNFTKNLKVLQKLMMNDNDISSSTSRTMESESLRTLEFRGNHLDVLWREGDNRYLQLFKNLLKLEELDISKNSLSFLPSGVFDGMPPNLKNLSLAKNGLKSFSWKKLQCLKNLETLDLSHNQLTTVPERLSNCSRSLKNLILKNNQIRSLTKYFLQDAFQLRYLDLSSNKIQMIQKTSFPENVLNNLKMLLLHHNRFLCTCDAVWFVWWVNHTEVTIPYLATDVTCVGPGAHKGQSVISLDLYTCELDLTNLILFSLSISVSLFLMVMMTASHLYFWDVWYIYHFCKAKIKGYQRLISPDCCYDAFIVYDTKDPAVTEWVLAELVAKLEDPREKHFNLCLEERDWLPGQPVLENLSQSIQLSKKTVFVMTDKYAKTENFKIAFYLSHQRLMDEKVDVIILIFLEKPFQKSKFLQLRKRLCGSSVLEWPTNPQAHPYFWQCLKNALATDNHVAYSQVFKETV

| Compound | IC50 (human TLR7) | IC50 (human TLR8) | IC50 (human TLR9) |
| --- | --- | --- | --- |
| Cc1cc(-c2[nH]c3ccc(C4CCN(C(=O)CN5CC(F)(F)C[C@H]5CO)CC4)cc3c2C(C)C)cc(C)n1 [Example 403, (S)-2-(4,4-difluoro-2-(hydroxymethyl)pyrrolidin-1-yl)-1-(4-(2-(2,6-dimethylpyridin-4-yl)-3-isopropyl-1H-indol-5-yl)piperidin-1-yl)ethan-1-one] | 0.0146 µM | 0.209 µM | 17.6 µM |
| Cc1cc(-c2[nH]c3ccc(C4CCN(C(=O)CN5CC(C(F)(F)F)C[C@@H]5CO)CC4)cc3c2C(C)C)cc(C)n1 (stereo partly drawn) [Example 404, 1-(4-(2-(2,6-dimethylpyridin-4-yl)-3-isopropyl-1H-indol-5-yl)piperidin-1-yl)-2-((2R)-2-(hydroxymethyl)-4-(trifluoromethyl)pyrrolidin-1-yl)ethan-1-one] | 0.0645 µM | 0.437 µM | 11.3 µM |
| Cc1cc(-c2[nH]c3ccc(C4CCN(C(=O)CN5CCOC[C@@H]5CO)CC4)cc3c2C(C)C)cc(C)n1 [Example 405, (S)-1-(4-(2-(2,6-dimethylpyridin-4-yl)-3-isopropyl-1H-indol-5-yl)piperidin-1-yl)-2-(3-(hydroxymethyl)morpholino)ethan-1-one] | 0.0021 µM | 0.0129 µM | 0.527 µM |
| CCC(C)CN(CCO)CC(=O)N1CCC(c2ccc3[nH]c(-c4cc(C)nc(C)c4)c(C(C)C)c3c2)CC1 (stereo not drawn) [Example 406, 1-(4-(2-(2,6-dimethylpyridin-4-yl)-3-isopropyl-1H-indol-5-yl)piperidin-1-yl)-2-((2-hydroxyethyl)(2-methylbutyl)amino)ethan-1-one] | 0.0078 µM | 0.0738 µM | 1.07 µM |
| Cc1cc(-c2[nH]c3ccc(C4CCN(C(=O)CN(CCO)Cc5ccc(F)cc5)CC4)cc3c2C(C)C)cc(C)n1 [Example 407, 1-(4-(2-(2,6-dimethylpyridin-4-yl)-3-isopropyl-1H-indol-5-yl)piperidin-1-yl)-2-((4-fluorobenzyl)(2-hydroxyethyl)amino)ethan-1-one] | 0.007 µM | 0.071 µM | 0.495 µM |
| Cc1cc(-c2[nH]c3ccc(C4CCN(C(=O)CN(C)CCC5(O)CCCC5)CC4)cc3c2C(C)C)cc(C)n1 [Example 408, 1-(4-(2-(2,6-dimethylpyridin-4-yl)-3-isopropyl-1H-indol-5-yl)piperidin-1-yl)-2-((2-(1-hydroxycyclopentyl)ethyl)(methyl)amino)ethan-1-one] | 0.0076 µM | 0.0725 µM | 0.846 µM |
| Cc1cc(-c2[nH]c3ccc(C4CCN(C(=O)CN5C[C@@H](F)C[C@H]5CO)CC4)cc3c2C(C)C)cc(C)n1 [Example 409, 1-(4-(2-(2,6-dimethylpyridin-4-yl)-3-isopropyl-1H-indol-5-yl)piperidin-1-yl)-2-((2S,4S)-4-fluoro-2-(hydroxymethyl)pyrrolidin-1-yl)ethan-1-one] | 0.0041 µM | 0.0679 µM | 2.53 µM |
| Cc1cc(-c2[nH]c3ccc(C4CCN(C(=O)CN5C[C@H](C)C[C@@H]5CO)CC4)cc3c2C(C)C)cc(C)n1 [Example 410, 1-(4-(2-(2,6-dimethylpyridin-4-yl)-3-isopropyl-1H-indol-5-yl)piperidin-1-yl)-2-((2R,4R)-2-(hydroxymethyl)-4-methylpyrrolidin-1-yl)ethan-1-one] | 0.0045 µM | 0.027 µM | 0.481 µM |
| Cc1cc(-c2[nH]c3ccc(C4CCN(C(=O)CN5CCC[C@@H]5CO)CC4)cc3c2C(C)C)cc(C)n1 [Example 412, (R)-1-(4-(2-(2,6-dimethylpyridin-4-yl)-3-isopropyl-1H-indol-5-yl)piperidin-1-yl)-2-(2-(hydroxymethyl)pyrrolidin-1-yl)ethan-1-one] | 0.0047 µM | 0.034 µM | 0.568 µM |
| Cc1cc(-c2[nH]c3ccc(C4CCN(C(=O)CN(C)C5CCOC5)CC4)cc3c2C(C)C)cc(C)n1 (stereo not drawn) [Example 413, 1-(4-(2-(2,6-dimethylpyridin-4-yl)-3-isopropyl-1H-indol-5-yl)piperidin-1-yl)-2-(methyl(tetrahydrofuran-3-yl)amino)ethan-1-one] | 0.0096 µM | 0.0918 µM | 2.5 µM |
| CCCCN(CCO)CC(=O)N1CCC(c2ccc3[nH]c(-c4cc(C)nc(C)c4)c(C(C)C)c3c2)CC1 [Example 414, 2-(butyl(2-hydroxyethyl)amino)-1-(4-(2-(2,6-dimethylpyridin-4-yl)-3-isopropyl-1H-indol-5-yl)piperidin-1-yl)ethan-1-one] | 0.0024 µM | 0.0168 µM | 0.924 µM |
| COc1ccc(CN2CCC(c3ccc4[nH]c(-c5cc(C)nc(C)c5)c(C(C)C)c4c3)CC2)cn1 [Example 424, 2-(2,6-dimethylpyridin-4-yl)-3-isopropyl-5-(1-((6-methoxypyridin-3-yl)methyl)piperidin-4-yl)-1H-indole] | 0.0083 µM | 0.0072 µM | 0.255 µM |
| Cc1cc(-c2[nH]c3ccc(C4CCN(Cc5c[nH]cn5)CC4)cc3c2C(C)C)cc(C)n1 [Example 425, 5-(1-((1H-imidazol-4-yl)methyl)piperidin-4-yl)-2-(2,6-dimethylpyridin-4-yl)-3-isopropyl-1H-indole] | 0.0037 µM | 0.0025 µM | 0.143 µM |
| Cc1cc(-c2[nH]c3ccc(C4CCN(Cc5c[nH]c(C)n5)CC4)cc3c2C(C)C)cc(C)n1 [Example 426, 2-(2,6-dimethylpyridin-4-yl)-3-isopropyl-5-(1-((2-methyl-1H-imidazol-4-yl)methyl)piperidin-4-yl)-1H-indole] | 0.0061 µM | 0.0026 µM | 0.09 µM |
| Cc1cc(-c2[nH]c3ccc(C4CCN(C5CCN(C(C)C)CC5)CC4)cc3c2C(C)C)cc(C)n1 [Example 427, 2-(2,6-dimethylpyridin-4-yl)-3-isopropyl-5-(1′-isopropyl-[1,4′-bipiperidin]-4-yl)-1H-indole] | 0.0083 µM | 0.0081 µM | 0.173 µM |

Next, values leading:

| IC50 (human TLR7) | IC50 (human TLR8) | IC50 (human TLR9) | Compound |
| --- | --- | --- | --- |
| 0.0029 µM | 0.024 µM | 1.23 µM | Cc1cc(-c2[nH]c3ccc(C4CCN(C(=O)CN(C)CCCO)CC4)cc3c2C(C)C)cc(C)n1 [Example 411, 1-(4-(2-(2,6-dimethylpyridin-4-yl)-3-isopropyl-1H-indol-5-yl)piperidin-1-yl)-2-((3-hydroxypropyl)(methyl)amino)ethan-1-one] |
| 0.0079 µM | 0.0397 µM | 1.86 µM | Cc1cc(-c2[nH]c3ccc(C4CCN(C(=O)CN(CCO)C(C)C)CC4)cc3c2C(C)C)cc(C)n1 [Example 415, 1-(4-(2-(2,6-dimethylpyridin-4-yl)-3-isopropyl-1H-indol-5-yl)piperidin-1-yl)-2-((2-hydroxyethyl)(isopropyl)amino)ethan-1-one] |
| 0.0045 µM | 0.0497 µM | 4.76 µM | Cc1cc(-c2[nH]c3ccc(C4CCN(C(=O)CN(C)C5COC5)CC4)cc3c2C(C)C)cc(C)n1 [Example 416, 1-(4-(2-(2,6-dimethylpyridin-4-yl)-3-isopropyl-1H-indol-5-yl)piperidin-1-yl)-2-(methyl(oxetan-3-yl)amino)ethan-1-one] |
| 0.0103 µM | 0.0723 µM | 9.38 µM | Cc1cc(-c2[nH]c3ccc(C4CCN(C(=O)CN(C)Cc5cc(C)on5)CC4)cc3c2C(C)C)cc(C)n1 [Example 417, 1-(4-(2-(2,6-dimethylpyridin-4-yl)-3-isopropyl-1H-indol-5-yl)piperidin-1-yl)-2-(methyl((5-methylisoxazol-3-yl)methyl)amino)ethan-1-one] |
| 0.003 µM | 0.0306 µM | 2.05 µM | COc1ncc(CN(C)CC(=O)N2CCC(c3ccc4[nH]c(-c5cc(C)nc(C)c5)c(C(C)C)c4c3)CC2)cn1 [Example 418, 1-(4-(2-(2,6-dimethylpyridin-4-yl)-3-isopropyl-1H-indol-5-yl)piperidin-1-yl)-2-(((2-methoxypyrimidin-5-yl)methyl)(methyl)amino)ethan-1-one] |
| 0.0107 µM | 0.117 µM | 45.5 µM | Cc1cc(-c2[nH]c3ccc(C4CCN(C(=O)CN(C)Cc5ncn(C)n5)CC4)cc3c2C(C)C)cc(C)n1 [Example 419, 1-(4-(2-(2,6-dimethylpyridin-4-yl)-3-isopropyl-1H-indol-5-yl)piperidin-1-yl)-2-(methyl((1-methyl-1H-1,2,4-triazol-3-yl)methyl)amino)ethan-1-one] |
| 0.0015 µM | 0.0099 µM | 0.632 µM | Cc1cc(-c2[nH]c3ccc(C4CCN(C(=O)CN(C)CCO)CC4)cc3c2C(C)C)cc(C)n1 [Example 420, 1-(4-(2-(2,6-dimethylpyridin-4-yl)-3-isopropyl-1H-indol-5-yl)piperidin-1-yl)-2-((2-hydroxyethyl)(methyl)amino)ethan-1-one] |
| 0.0054 µM | 0.0259 µM | 0.656 µM | Cc1cc(-c2[nH]c3ccc(C4CCN(C(=O)CN(C)CCF)CC4)cc3c2C(C)C)cc(C)n1 [Example 421, 1-(4-(2-(2,6-dimethylpyridin-4-yl)-3-isopropyl-1H-indol-5-yl)piperidin-1-yl)-2-((2-fluoroethyl)(methyl)amino)ethan-1-one] |
| 0.0055 µM | 0.0734 µM | 41.3 µM | Cc1cc(-c2[nH]c3ccc(C4CCN(C(=O)CN(C)CC(F)F)CC4)cc3c2C(C)C)cc(C)n1 [Example 422, 2-((2,2-difluoroethyl)(methyl)amino)-1-(4-(2-(2,6-dimethylpyridin-4-yl)-3-isopropyl-1H-indol-5-yl)piperidin-1-yl) ethan-1-one] |
| 0.0028 µM | 0.0208 µM | 1.33 µM | Cc1cc(-c2[nH]c3ccc(C4CCN(C(=O)CN(C)CC#N)CC4)cc3c2C(C)C)cc(C)n1 [Example 423, 2-((2-(4-(2-(2,6-dimethylpyridin-4-yl)-3-isopropyl-1H-indol-5-yl)piperidin-1-yl)-2-oxoethyl)(methyl)amino)acetonitrile] |
